Data as given in US6423744B1, “Method of diminishing the adverse effects of interleukin-2” (Biomedicines, Inc., priority 1998, dated 2002).
pIC50: −log10 of the molar value.

What was measured:
[1] = system: B16/BL6 murine melanoma tumor cells; assay: Murine model of B16 melanoma lung metastases (Example 5); type: in vivo
Description: The B16/BL6 murine melanoma tumor cells for injection were obtained from in vitro culture. Mice were inoculated with 3×10^5 cells intravenously on Day 0.
Tumor cells were injected on Day 0. […] An additional group of 15 untreated control mice was used for timing the termination of the study. At Day 10, three untreated control mice were to be euthanized each day until tumor burden was determined to be optimal for counting metastatic foci, at which time the remaining rumored and five non-rumored mice were to be euthanized and lungs removed for determination of body weights, lung weights and numbers of metastatic foci.
Anti-tumor activity was assessed by counts of metastatic foci in the lungs. Comparison among the three treatment groups (Groups 1, 2 and 3) was performed using one-way ANOVA (or Kruskal-Wallis one-way analysis of variance on ranks for data with non-normal distribution) with the three between-group comparisons performed using adjustment for multiple comparisons.

[2] = system: IL-2-induced toxicity; assay: Rat model of IL-2-induced toxicity, PaO2 (Example 4); settings: Biomed 101 (20 or 60 mg/kg total i.p.) with IL-2 12.5 MIU/kg
Description: (§1) Six groups of animals were studied (total N=59). […] The animals remained conscious throughout the experiment until an anesthetic was administered approximately 10 minutes before planned exsanguination. The anesthetic consisted of a mixture of ketamine (45 mg/ml), xylazine (2.5 mg/ml), and acepromazine (0.37 mg/ml) diluted with water and administered subcutaneously at a dose of 2.0 ml/kg.
(§2) IL-2 or IL-2 vehicle was administered by bolus injection via the tail vein. […] Two hours after the injection of IL-2 or IL-2 vehicle, animals were exsanguinated via the abdominal aorta and the arterial blood was collected for measurement of PaO2.
(§3) Group 1 (n=13) consisted of control animals that received injections of each vehicle, either i.v. or i.p. as appropriate. The other five groups received i.v. bolus injections of IL-2 via the tail vein. Groups 2 (n=8), 3 (n=5), and 4 (n=13) received IL-2 in doses of 1.5, 6.0, and 12.5 million IU/kg, respectively.
The study was conducted in two phases.
(§4) Whole arterial blood was collected into heparinized syringes. Immediately after collection, the blood sample was analyzed using a Lazar Research Laboratories flow-through dissolved-oxygen probe. The cell temperature was set to 37 degrees centigrade. A syringe pump was set to 0.5 ml/min to introduce the sample. The cell was zeroed using a solution of heparin and isotonic saline equilibrated with 100% nitrogen. The cell was then calibrated using a solution of heparin and isotonic saline equilibrated with 20% oxygen. After each PaO2 determination in whole blood was made, the cell was washed with heparin ad isotonic saline. A 20% O2 standard was introduced before each sample to ensure accurate and reliable measurements.
(§5) If the data appeared to be normally distributed, the comparison was to be made using Student's t-test.

[3] = system: calcium ionophore dermal inflammation; assay: Inhibition of calcium ionophore dermal inflammation in the guinea pig ear; settings: in vivo
[4] = system: acetic acid colonic inflammation; assay: Inhibition of acetic acid colonic inflammation; type: in vivo; settings: Rattus norvegicus, po; i.g.; read-out: Inhibition of acetic acid colonic inflammation in rats and guinea pig, ED50
[5] = system: LTB4 chemotaxis; assay: Inhibition of LTB4 chemotaxis (in vitro); type: cell-based
[6] = system: renal cell carcinoma; assay: Clinical trial of LA plus IL-2 in patients with renal cell carcinoma (Example 6); type: in vivo, human
Description: A preferred LA compound (as defined in Example 3) from drug substance lot # BA901 was supplied as 25 mg capsules Batch # 99G111 by BioMedicines, Inc. Each hard gelatin capsule contained 25 mg LA plus excipients including lactose hydrous NF; hydroxypropylmethylcellulose 2910, 6 cps USP; sodium lauryl sulfate NF; purified water, USP; and sodium chloride.
Patients received IL-2 600,000 IU/kg by intravenous bolus three times daily during 5 days for a planned total of 14 doses. LA was administered orally 1 hour prior to each schedule dose of IL-2 as well as 8 hours after the final scheduled dose. If dose of IL-2 was withheld because of IL-2 induced toxicity, dosing with LA continued. Doses of LA ranged from 25 mg three times daily (TID) to 75 mg TID. Plasma levels of LA were obtained at each dose level.
The principal activity endpoint was the relationship between the total number of doses of IL-2 that could be administered and well tolerated by patients and the plasma levels of LA. A second endpoint was the response rate in patients of the tumor to the combination therapy with the leukotriene B4 receptor antagonist and IL-2 as judged by complete responses (total disappearance of measurable tumor) or partial responses (a ≧50% decrease in measurable tumor volume).
Data were analyzed by examining the significance of the correlation between number of doses of IL-2 and LA plasma level (Spearman's rho).

[7] = system: LTB4 synthesis; assay: Inhibition of LTB4 synthesis; type: biochemical
[8] = system: IL-2-induced reduction in oxygenation; settings: rat
Description: Animals were weighed on the day of dosing and the appropriate doses of IL-2 and/or LA were calculated. The animals remained conscious throughout the experiment until an anesthetic was administered approximately 10 minutes before exsanguination. The anesthetic consisted of a mixture of ketamine (45 mg/ml) xylazine (2.5 mg/ml), and acepromazine (0.37 mg/ml) diluted with water and administered subcutaneously at a dose of 2.0 ml/kg.
Group 1 (n=14) consisted of control animals that received both i.v. and i.p. injections of vehicle. The other five groups received i.v. injections of IL-2 via the tail vein. Groups 2 (n=8), 3 (n=4), and 4 (n=10) received IL-2 in doses of 1.5, 6.0, and 12.5 million IU(MIU)/kg, respectively. In addition to 12.5 million IU/kg of IL-2, Groups 5 (n=8) and 6 (n=13) received i.p. injections of the LA. The LA was administered in two equal, divided doses; the first dose of LA was given 20 minutes before administration of IL-2 and the second dose was given 50 minutes after administration of IL-2. Group 5 was administered 2×10 mg/kg of the LA. Group 6 was administered 2×30 mg/kg of the LA.
Two hours after the IL-2 injection, the animals were exsanguinated via the abdominal aorta and the arterial blood was collected for measurement of PaO2.
Whole arterial blood was collected into heparinized blood arterial gas syringes. Immediately after collection, the blood sample was analyzed using PaO2 electrode model DO-166FT. Sample blood was pre-oxygenated and used as a standard before and after each test sample.
Data are shown as mean±SEM. Data were analyzed using the Tukey-Kramer test (JMP® statistical software from SAS, Inc.) Significance was defined as a p-value less than 0.05.

[9] = type: in vivo; settings: intraperitoneal, bid for 4 days, tumored mice treated with IL-2; preliminary study
[10] = system: 12 (R)-HETE; assay: Inhibition of 12 (R)-HETE in guinea pigs; type: in vivo; settings: Cavia porcellus, po; i.g.
[11] = Biomed 101 plasma levels in rats (HPLC); type: in vivo, Sprague Dawley rats; settings: rat
Description: In animals dosed with Biomed 101, plasma levels of Biomed 101 were assayed with a validated, high-pressure liquid chromatographic method.

[12] = system: LTB4-induced neutrophil granulation; assay: Inhibition of LTB4-induced neutrophil granulation; type: cell-based
[13] = system: LTA4 conversion into LTB4; assay: Inhibition of LTA4 conversion into LTB4; type: biochemical
[14] = system: human neutrophil adhesion to LTB4-stimulated umbilical vein endothelial cells; assay: Inhibition of human neutrophil adhesion to LTB4-stimulated umbilical vein endothelial cells; type: cell-based
[15] = system: LTB4 chemotaxis; assay: Inhibition of LTB4 chemotaxis in guinea pigs; type: in vivo; settings: Cavia porcellus, po; i.g.
[16] = system: IL-2-induced toxicity; settings: rat, in vivo
Description: as §1, §2, §3
The study was conducted in two phases.
as §4, §5

[17] = system: renal cell carcinoma; settings: IL-2 treatment alone; cited from earlier work

## CCCc1c(OCCCOc2ccc(C(C)=O)c(OC)c2CCC)ccc2c1OC(C(=O)O)CC2 (racemic) [Biomed 101, (±)7-[3-(4-acetyl-3-methoxy-2-propylphenoxy)propoxy]-3,4-dihydro-8-propyl-2H-1-benzopyran-2-carboxylic acid]
[1]; Day 10, IL-2 1 mg/kg iv, Biomed 101 25 mg/kg ip with IL-2, q6hx2, qdx4, vehicle control 98
  Number of lung mets Mean (± SEM): 56
[1]; mice, Biomed 101 25 mg/kg ip with IL-2
  effect of coadministration on the anti-tumor activity of IL-2: fully preserves and may enhance
[2]
  Median PaO2 versus IL-2 alone: significantly higher
  Median PaO2 versus control animals: not significantly different
[3]
  Inhibition of calcium ionophore dermal inflammation in the guinea pig ear, ED50: 0.7 mg/ear
[4]
  ED50: 20 mg/kg
[5]
  Inhibition of LTB4 chemotaxis, range: 0.3 to 3.0 µM
[6]
  number of doses of IL-2 withheld because of IL-2 toxicity as plasma level of LA increased: decreased
  total number of doses of IL-2 well tolerated as LA dose and plasma level rose: rose
[6]; 25 mg TID to 75 mg TID orally
  plasma level of LA with total daily dose: increased
[7]
  pIC50: 5.68
[8]; LA 2×10 or 2×30 mg/kg i.p. with IL-2 12.5 MIU/kg i.v., p>0.5 vs control, p<0.001 vs IL-2 alone
  effect of LA on the reduction in oxygenation induced by IL-2: mitigated
[9]
  highest tolerated dose: 25 mg/kg bid
[10]
  ED50: 20 mg/kg
[11]; 20 mg/kg Biomed 101 i.p. (2×10 mg/kg)
  mean plasma level (± standard error of the mean) of Biomed 101: 2.0 (±0.26) μg/ml
[11]; 60 mg/kg Biomed 101 i.p. (2×30 mg/kg)
  mean plasma level (± standard error of the mean) of Biomed 101: 6.4 (±0.89) μg/ml
[12]
  Inhibition of LTB4-induced neutrophil granulation, range: 1 to 3 µM
[13]
  pIC50: 4.70
[14]
  Inhibition of human neutrophil adhesion to LTB4-stimulated umbilical vein endothelial cells, range: 0.3 to 1.0 µM
[15]
  ED50: 0.6 mg/kg

## des-alanyl-1, serine-125 human interleukin-2 [IL-2]
[16]
  Change in Oxygen (mean) (mm Hg): −15 mm Hg
  decrease of mean PaO2 for each increase of 1 MIU/kg in IL-2 administered: approximately 1.8 mm Hg
  effect on PaO2: significant fall
[1]; Day 10, vehicle control 174
  Median Lung Weight: 177 mg
[1]; Kruskal-Wallis
  lung weights compared with vehicle control: did not decrease
[1]; mice, Group 2, IL-2 1 mg/kg iv, Day 4
  deaths: one death
[1]; treated group compared with control (untreated) group
  Changes in Metastases (mean) (N): −32 N
[8]; in vivo, iv
  arterial oxygen level (PaO2), mean±SEM: 77.5±2.5 mm Hg
  effect of progressively higher doses on arterial oxygen levels: progressively reduced
[17]
  objective response rate historically noted: 8-10%
